These results are taken from patent US11879140B2, “P21 mRNA targeting DNAzymes” (1E Therapeutics Ltd., priority 2020, dated 2024).

[invdT] = inverted (3'-3') thymidine

The subject of data set [1] is senescent human IMR-90 fibroblast cells. In kind it is cell-based. As to conditions: increasing concentrations (FIGS. 6A-C, 12A-C). As for the experimental part: Human IMR-90, BJ, WI-38 fibroblasts and REC epithelial cells were obtained from ATCC and grown at 5% oxygen. IMR-90 and REC cells were maintained in DMEM medium comprising 100 units per ml of penicillin, […] of streptomycin and 10% fetal bovine serum. BJ and WI-38 cells were maintained in EMEM medium comprising 100 units per ml of penicillin, […] of streptomycin, 10% fetal bovine serum, 1% Pyruvate, 1% L-Glutamine, mLFs were isolated according to standard procedures [Seluanov, A., et al. J Vis Exp (2010) (44):2033] and grown at 5% oxygen. Cells were maintained in EMEM medium comprising 100 units per ml of penicillin, […] of streptomycin and 15% fetal bovine serum.
DNA damage induced senescence (DIS) was induced by etoposide treatment (E1383, Sigma) at a concentration of […] for IMR-90, BJ, and WI-38, 16 μM for mLF and 12.5 μM for REC for a duration of 48 hours. Cells acquired the senescence phenotype 7 days post treatment (determined by SA-beta-gal staining).
Oncogene Induced Senescence (OIS) was induced by means of retroviral infection with H-RasG12 (pLNCX2) at 5% oxygen. Retroviruses were packaged, and infections were performed as described below.
Replicative Induced Senescence (RIS) was induced by long-term passaging of the cells in tissue culture. Cells acquired the senescence phenotype after 40 population doublings.
Primary target cells (IMR-90, BJ, […]) were plated in 24-well plates at 100,000 cells per well. Cells were transfected with different concentrations of DNAzymes (as depicted in Table 2, below) using Lipofectamine™ 2000 (Invitrogen) according to manufacturer instructions. The percentage of survival was determined based on quantification of remaining adherent cells using PrestoBlue® reagent (A13262, Life Technologies Ltd.) relative to Lipofectamine™ only control and compared to Scramble DNAzyme (Dz_Scramble) [Scramble Arm (Scr A) sequence: ATCTTCCTFggctagctacaacgaCGCCTCTCC, SEQ ID NO: 5, or Scramble catalytic core (Scr B) sequence: AGGAGAACAacagtaactggcgacGGGATGAGG, SEQ ID NO: 86] treated cells, 3-6 days following transfection.

In another data set the test system is human p21 mRNA. As to the kind of experiment: In vitro cleavage assay of human p21 mRNA. In kind it is biochemical. As to conditions: in vitro cleavage of p21 mRNA (SEQ ID NO: 1); RNA substrate 500 nM, 37° C. 60 min, agarose gel. The text has this:
Total RNA was isolates from senescent IMR-90 cells using Nucleospin® RNA kit (Macherey-Nagel™). cDNA was synthesized with gene-specific reverse primers using M-MLV Reverse Transcriptase (Promega), according to the manufacturer's protocol. To generate template for in vitro transcription (IVT) reaction, the cDNA was PCR amplified using KAPA Taq EXtra HotStart® ReadyMix™ PCR Kit (R&D). PCR product was run on 1.5% agarose TAE gel, the correct band size was cut and DNA was cleaned using Wizard® SV Gel and PCR Clean-Up System kit (Promega). IVT was performed using HiScribe™ T7 High Yield RNA Synthesis Kit (NEB). Samples were then treated with DNase I (New England Biolabs) and incubated for 15 minutes at 37° C. IVT product was run on 1.5% agarose TBE gel, the correct band size was cut and RNA was cleaned using QIAquick® Gel Extraction Kit (Qiagen). See primer sequences in Table 1, below.
RNA substrate was diluted with Molecular Biology Grade Water (Biological Industries) and used in in vitro cleavage assay. A 20 μl reaction system comprising RNA substrate (final concentration 500 nM), 2 μl 10× reaction buffer (50 mM Tris-HCl pH 7.4, 100 mM NaCl, 10 mM MgCl2) and 1 μl DNAzyme (10 μM) (as depicted in Table 2, below) was mixed. Reactions were incubated at 37° C. for 60 min. 2×RNA L.D. (Thermo Fisher) was added to each sample. Samples were heated at 70° C. for 30 sec, centrifuged and loaded onto 1.5% agarose TBE gels. Quantification was performed using Image Lab software (Bio Rad).

In another data set the test system is p21 mRNA. As to the kind of experiment: Quantitative RT-PCR of p21 mRNA in senescent cells. In kind it is cell-based, human. Conditions: over 24 hours following treatment, 2000 nM (FIG. 5D). Here is the method: Total RNA was extracted from IMR-90 cells using NucleoSpin® RNA (Macherey-Nagel™), according to the manufacturer protocol. Complementary DNA was prepared using the M-MLV Reverse Transcriptase (Promega), according to the manufacturer protocol. Quantitative real-time PCR was performed using the SYBR Green PCR master-mix (Applied Biosystems) on a CFX96 Real-Time PCR System (Bio Rad). See primer sequences in Table 1, above.

A further data set concerns healthy C57/B6 mice. The experiment in a line: In-vivo safety of DNAzyme in mice. As for the experimental part: 8 weeks old male and female C57/BL6 were treated intranasally with DNAzyme 1670 for 14 days. DNAzyme was administered in three concentrations: 40, 200 and 1000 μg. PBS treated mice served as control. Body weight, viability, clinical signs and behavior were monitored daily. On day 14, blood was collected using cardiac puncture and mice were sacrificed thereafter. Blood analyses were performed by AML (Central Lab Services). Hematology was performed using Advia-2120 (Siemens Healthineers). Biochemistry was performed using COBAS® 6000 (Roche Diagnostics).

As for “DNAzyme 985: SEQ ID NO: 36: GGGGGCGGtccgagccggacgaAGGGTATGT (GGGGGCGGTCCGAGCCGGACGAAGGGTATGT; DNA, backbone and methylation of C not given here)”, the “selectivity of killing, senescent versus growing IMR-90 cells” value in data set [1] is on record as “wide range of selective doses”. Moreover, the Validated cleavage entry in the data set with human p21 mRNA is listed as “validated for mediating cleavage of p21 mRNA”. Also, in the data set with p21 mRNA, the “p21 mRNA knockdown” value was 73%.

Turning to “DNAzyme 2266: SEQ ID NO: 78: AGAGGTTTAggctagctacaacgaAGTCTAGGT (DNA AGAGGTTTAGGCTAGCTACAACGAAGTCTAGGT; DNA, backbone and methylation of C not given here)”, in the data set with human p21 mRNA, the Validated cleavage result is “validated for mediating cleavage of p21 mRNA”.

“DNAzyme 1967: SEQ ID NO: 70: TGGGGTGGAggctagctacaacgaGAGGAAGGT (DNA TGGGGTGGAGGCTAGCTACAACGAGAGGAAGGT; DNA, backbone and methylation of C not given here)”: the Validated cleavage entry in the data set on human p21 mRNA was “validated for mediating cleavage of p21 mRNA”.

Regarding “DNAzyme 1504: SEQ ID NO: 47: GGGGTGGTtccgagccggacgaGCTCCAGGA (DNA GGGGTGGTTCCGAGCCGGACGAGCTCCAGGA; DNA, backbone and methylation of C not given here)”, the Validated cleavage result with human p21 mRNA is “validated for mediating cleavage of p21 mRNA”.

For the substance “DNAzyme 495: SEQ ID NO: 29: GAAGTTCCAggctagctacaacgaCGCTCACGG (DNA GAAGTTCCAGGCTAGCTACAACGACGCTCACGG; DNA, backbone and methylation of C not given here)”, in the data set on human p21 mRNA, the Validated cleavage result was “validated for mediating cleavage of p21 mRNA”.

Regarding “DNAzyme 974: SEQ ID NO: 35: GGGTATGTAggctagctacaacgaATGAGGAGG (GGGTATGTAGGCTAGCTACAACGAATGAGGAGG; DNA, backbone and methylation of C not given here)”, in the data set with human p21 mRNA, the Validated cleavage result was “validated for mediating cleavage of p21 mRNA”.

As to “DNAzyme 846: SEQ ID NO: 33: GTGGGCGGAggctagctacaacgaTAGGGCTTC (DNA GTGGGCGGAGGCTAGCTACAACGATAGGGCTTC; DNA, backbone and methylation of C not given here)”, the Validated cleavage entry in the data set on human p21 mRNA is on record as “validated for mediating cleavage of p21 mRNA”.

“DNAzyme 1467: SEQ ID NO: 46: TTCACAAGAggctagctacaacgaAGAGGGGGG (DNA TTCACAAGAGGCTAGCTACAACGAAGAGGGGGG; DNA, backbone and methylation of C not given here)”: the Validated cleavage entry with human p21 mRNA was “validated for mediating cleavage of p21 mRNA”.

Regarding “DNAzyme 1670 comprising a 3′Inverted dT: DNAzyme 1670 (SEQ ID NO: 54) with a 3′ inverted dT modification (DNA GGGAAAGGAGGCTAGCTACAACGAAAGGGGGAG; DNA, all phosphodiester, 3' [invdT], methylation of C not given here; further chemistry not fully specified)”, in the data set on healthy C57/B6 mice (2 week endpoint (FIGS. 13G-O)), the “blood tests: complete blood count and biochemistry parameters” value is recorded as “safe profile”. In the data set on healthy C57/B6 mice (40, 200, 1000 micrograms intranasally daily for 2 weeks), the “signs of pain or distress” value was “no obvious signs of pain or distress”. In addition, the “body weight between groups” value in the data set with healthy C57/B6 mice (40, 200, 1000 micrograms intranasally daily for 2 weeks (FIG. 13F)) is on record as “no significant differences”.

Turning to “DNAzyme 541: SEQ ID NO: 30: GCUCCCAGGggctagctacaacgaGAAGUCACC (DNA GCUCCCAGGGGCTAGCTACAACGAGAAGUCACC; DNA, backbone, methylation of C and T or U not given here)”, the Validated cleavage entry in the data set on human p21 mRNA is “validated for mediating cleavage of p21 mRNA”.

As for “DNAzyme 1683: SEQ ID NO: 55: AGAGGGTAtccgagccggacgaGAAGGGAAA (DNA AGAGGGTATCCGAGCCGGACGAGAAGGGAAA; DNA, backbone and methylation of C not given here)”, in the data set on human p21 mRNA, the Validated cleavage entry is on record as “validated for mediating cleavage of p21 mRNA”.

As for “DNAzyme 1455: SEQ ID NO: 45: AGGGGGGTAggctagctacaacgaCAAGAGCCA (DNA AGGGGGGTAGGCTAGCTACAACGACAAGAGCCA; DNA, backbone and methylation of C not given here)”, the Validated cleavage result with human p21 mRNA was “validated for mediating cleavage of p21 mRNA”.

As for “DNAzyme 1013: SEQ ID NO: 38: TAATTCTAAggctagctacaacgaGCCAGAGGC (DNA TAATTCTAAGGCTAGCTACAACGAGCCAGAGGC; DNA, backbone and methylation of C not given here)”, the Validated cleavage entry in the data set on human p21 mRNA is given as “validated for mediating cleavage of p21 mRNA”.

On to “DNAzyme 1742: SEQ ID NO: 59: TCCAGTCCAggctagctacaacgaTGAGCTGGG (DNA TCCAGTCCAGGCTAGCTACAACGATGAGCTGGG; DNA, backbone and methylation of C not given here)”, for which, in the data set with human p21 mRNA, the Validated cleavage entry is recorded as “validated for mediating cleavage of p21 mRNA”.

For “DNAzyme 1641: SEQ ID NO: 53: AGAGGGGAAggctagctacaacgaTGCAGAGCC (DNA AGAGGGGAAGGCTAGCTACAACGATGCAGAGCC; DNA, backbone and methylation of C not given here)”, the Validated cleavage entry in the data set with human p21 mRNA is on record as “validated for mediating cleavage of p21 mRNA”.

As to “DNAzyme 1719: SEQ ID NO: 57: GGGGTGGGAggctagctacaacgaAGGCACCTC (DNA GGGGTGGGAGGCTAGCTACAACGAAGGCACCTC; DNA, backbone and methylation of C not given here)”, the Validated cleavage result with human p21 mRNA is given as “validated for mediating cleavage of p21 mRNA”.

Consider “DNAzyme 1684: SEQ ID NO: 56: GAGAGGGTAggctagctacaacgaTGAAGGGAA (DNA GAGAGGGTAGGCTAGCTACAACGATGAAGGGAA; DNA, backbone and methylation of C not given here)”, for which, in the data set on human p21 mRNA, the Validated cleavage result is “validated for mediating cleavage of p21 mRNA”.

“DNAzyme 1986: SEQ ID NO: 72: GCAATGAAtccgagccggacgaGGGGAGGGA (DNA GCAATGAATCCGAGCCGGACGAGGGGAGGGA; DNA, backbone and methylation of C not given here)”: the Validated cleavage result with human p21 mRNA was “validated for mediating cleavage of p21 mRNA”.

Take “DNAzyme 1838: SEQ ID NO: 63: GGACCCTCAggctagctacaacgaCCCCACAGC (DNA GGACCCTCAGGCTAGCTACAACGACCCCACAGC; DNA, backbone and methylation of C not given here)”: the Validated cleavage entry in the data set with human p21 mRNA is listed as “validated for mediating cleavage of p21 mRNA”.
